Source: patent US10028961B2, “Therapeutically active compounds and their methods of use” (AGIOS PHARMACEUTICALS, INC., priority 2013, dated 2018)
Like-named read-outs stand apart in the source and are kept apart here.

Columns and labels:
IDH2 R140Q = IDH2 R140Q (Homo sapiens (Human), UniProt P48735, R140Q); assay: In vitro assay for IDH2m R140Q inhibitors, cofactor depletion assay; format: biochemical; conditions: IDH2 R140Q enzyme
Outline: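 Remaining cofactor measured fluorimetrically: diaphorase/resazurin Stop Mix […], halting the reaction. Before that, mutant enzyme and compound sat 1 h at RT, then substrate mix (4 μM NADPH, 1.6 mM α-KG) was added for 16 h at RT.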

[1] = test system: U87MG pLVX-IDH2 R140Q-neo cells; assay: U87MG pLVX-IDH2 R140Q-neo cell based assay, 2-HG by LC-MS; conditions: Homo sapiens, U-87 MG
[2] = target: IDH1 wt/IDH1 R132H heterodimer (Homo sapiens (Human), UniProt O75874, R132H); assay: In vitro assay for IDH1m R132H inhibitors, IDH1 wt/IDH1 R132H heterodimer, NADPH depletion (diaphorase/resazurin); format: biochemical
Outline: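 Purified IDH1wt-his/IDH1R132H-flag heterodimer (sf9 co-expression) pre-incubated 1 hr at room temperature with compound and NADPH before α-KG addition. Remaining NADPH read by diaphorase/resazurin conversion to fluorescent resorufin, 5 min at 25° C. Compounds diluted 1:50 from DMSO; IC50 determined.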

[3] = target: IDH1 wt/IDH1 R132C heterodimer (Homo sapiens (Human), UniProt O75874, R132C); assay: In vitro assay for IDH1m R132C inhibitors, IDH1 wt/IDH1 R132C heterodimer, NADPH depletion (diaphorase/resazurin); format: biochemical; conditions: NADPH/NADP
Outline: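 Remaining NADPH was measured by diaphorase/resazurin conversion (5 min, 25 °C) as resorufin fluorescence, Ex 544/Em 590. DMSO was diluted 1:50 into the reaction, and IC50s were derived.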

[4] = IDH1 wt/IDH1 R132H heterodimer, 300 μM NADP (saturated), read-out: IDH1 wt/R132H NADPH/NADP IC50 saturated
[5] = IDH1 wt/R132H heterodimer, NADPH/NADP, not saturated, read-out: IDH1 wt/R132H NADPH/NADP IC50 not saturated

Chain of IDH1 wt/IDH1 R132C heterodimer (O75874 whole entry R132C): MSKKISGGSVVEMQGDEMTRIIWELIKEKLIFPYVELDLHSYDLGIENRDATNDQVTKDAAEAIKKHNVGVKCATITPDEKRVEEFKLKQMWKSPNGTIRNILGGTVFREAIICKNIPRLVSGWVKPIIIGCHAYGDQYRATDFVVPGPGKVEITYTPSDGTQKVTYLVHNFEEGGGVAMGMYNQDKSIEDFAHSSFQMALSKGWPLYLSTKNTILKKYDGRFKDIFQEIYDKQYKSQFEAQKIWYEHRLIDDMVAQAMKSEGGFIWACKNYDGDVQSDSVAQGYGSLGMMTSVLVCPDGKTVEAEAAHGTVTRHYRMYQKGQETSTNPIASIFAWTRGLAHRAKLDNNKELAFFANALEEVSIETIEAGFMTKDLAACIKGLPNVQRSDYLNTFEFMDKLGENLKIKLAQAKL
Chain of IDH1 wt/IDH1 R132C heterodimer (O75874 whole entry, stated change not applied): as the sequence (O75874 whole entry R132C) above, with C132R counted along it
Chain of IDH1 wt/IDH1 R132H heterodimer (O75874 whole entry R132H): as the sequence (O75874 whole entry R132C) above, with C132H counted along it
Chain of IDH1 wt/IDH1 R132H heterodimer (O75874 whole entry, stated change not applied): as the sequence (O75874 whole entry R132C) above, with C132R counted along it
Chain of IDH2 R140Q (P48735 40-452 R140Q): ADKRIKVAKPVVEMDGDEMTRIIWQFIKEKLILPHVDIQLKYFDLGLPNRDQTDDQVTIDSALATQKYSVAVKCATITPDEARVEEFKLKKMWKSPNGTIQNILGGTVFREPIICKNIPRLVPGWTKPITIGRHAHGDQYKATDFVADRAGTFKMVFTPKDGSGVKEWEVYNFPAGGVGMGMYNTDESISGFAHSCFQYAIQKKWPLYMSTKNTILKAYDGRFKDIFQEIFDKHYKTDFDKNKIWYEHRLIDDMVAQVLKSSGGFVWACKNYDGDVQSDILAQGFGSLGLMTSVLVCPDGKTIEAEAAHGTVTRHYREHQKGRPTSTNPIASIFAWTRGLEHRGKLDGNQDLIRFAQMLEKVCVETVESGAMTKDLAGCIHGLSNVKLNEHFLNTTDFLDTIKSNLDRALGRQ

| IC50 (IDH2 R140Q) [µM] | IC50 [1] [µM] | IC50 [2, 4] [µM] | IC50 [3] [µM] | IC50 [2, 5] [µM] | SMILES |
| --- | --- | --- | --- | --- | --- |
| < 0.05 | < 0.05 | < 0.05 |  |  | FC1(F)CC[C@H](Nc2nc(Nc3ccnc(C(F)(F)F)c3)nc(-c3cncc(C(F)(F)F)n3)n2)C1 [Compound 391] |
| < 0.05 | < 0.05 |  | < 0.05 | < 0.05 | N#Cc1cc(F)cc(Nc2nc(NC3CCC(F)(F)CC3)nc(-c3cccc(C(F)(F)F)n3)n2)c1 [Compound 164] |
| < 0.05 | < 0.05 |  | < 0.05 | < 0.05 | FC1(F)CCC(Nc2nc(NC3CC4(C3)CC(F)(F)C4)nc(-c3cccc(C(F)(F)F)n3)n2)C1 (stereo not drawn) [Compound 191] |
| < 0.05 | < 0.05 |  |  | < 0.05 | Fc1cc(F)cc(Nc2nc(NC3CC(F)(F)C3)nc(-n3ccc(C(F)(F)F)n3)n2)c1 [Compound 106] |
| < 0.05 | < 0.05 |  | 0.05 to 0.1 | < 0.05 | N#CC1(c2cc(Nc3nc(NCC(F)(F)F)nc(-c4cccc(C(F)(F)F)n4)n3)ccn2)CC1 [Compound 226] |
| < 0.05 | < 0.05 |  | < 0.05 | < 0.05 | FC1(F)CCC(Nc2nc(NC3CCC(F)(F)C3)nc(-n3ccc(C(F)(F)F)n3)n2)C1 (stereo not drawn) [Compound 146] |
| 0.1 to 1 | < 0.05 |  | 0.1 to 1 | 0.05 to 0.1 | CC(CC#N)Nc1nc(Nc2ccnc(C(C)(F)F)c2)nc(-c2cccc(C(F)(F)F)n2)n1 (stereo not drawn) [Compound 250] |
| < 0.05 | < 0.05 |  | 0.05 to 0.1 | 0.05 to 0.1 | CC(C)(C#N)Nc1nc(Nc2ccnc(C(C)(F)F)c2)nc(-c2cccc(C(F)(F)F)n2)n1 [Compound 247] |
|  |  |  | 0.1 to 1 | 0.1 to 1 | FC1(F)CCC(Nc2nc(NC3CCOCC3)nc(-c3cccc(C(F)(F)F)n3)n2)CC1 [Compound 255] |
| < 0.05 | < 0.05 |  | 0.05 to 0.1 | 0.1 to 1 | FC1(F)CC(Nc2nc(NC3CC(F)(F)C3)nc(-c3nccc(C(F)(F)F)n3)n2)C1 [Compound 256] |
| < 0.05 | < 0.05 |  |  | < 0.05 | FC1(F)CC(Nc2nc(NC3CC(F)(F)C3)nc(-c3cncc(C(F)(F)F)n3)n2)C1 [Compound 161] |
| < 0.05 | < 0.05 |  | 0.05 to 0.1 | 0.1 to 1 | N#CC1(c2cc(Nc3nc(NC4CCC(F)(F)C4)nc(-c4nccc(C(F)(F)F)n4)n3)ccn2)CC1 (stereo not drawn) [Compound 261] |
| < 0.05 | < 0.05 |  |  | < 0.05 | FC1(F)CCC(Nc2nc(NC3CCC(F)(F)CC3)nc(-c3cncc(C(F)(F)F)n3)n2)CC1 [Compound 160] |
| < 0.05 | < 0.05 |  | 0.1 to 1 | 0.05 to 0.1 | CC(C)(O)CNc1nc(Nc2cc(F)cc(C#N)c2)nc(-c2cccc(C(F)(F)F)n2)n1 [Compound 244] |
| < 0.05 | < 0.05 |  | < 0.05 | < 0.05 | FC1(F)CC(Nc2nc(NC3CC(F)(F)C3)nc(-c3cccc(C(F)(F)F)n3)n2)C1 [Compound 149] |
| < 0.05 | < 0.05 |  | < 0.05 | < 0.05 | Fc1ccc([C@H]2C[C@@H](Nc3nc(NC4CCC(F)(F)C4)nc(-c4cccc(C(F)(F)F)n4)n3)C2)cc1 (stereo partly drawn) [Compound 199] |
| < 0.05 | < 0.05 |  | < 0.05 | < 0.05 | C[C@@H](Nc1nc(Nc2ccnc(C3(C#N)CC3)c2)nc(-c2cccc(Cl)n2)n1)C1CC1 [Compound 167] |
| < 0.05 | < 0.05 |  | 0.1 to 1 | 0.05 to 0.1 | CC(C)(C)Nc1nc(Nc2cc(F)cc(C#N)c2)nc(-c2nccc(C(F)(F)F)n2)n1 [Compound 245] |
| < 0.05 | < 0.05 |  | < 0.05 | < 0.05 | FC1(F)CCC(Nc2nc(NC3CCC(F)(F)CC3)nc(-c3cncc(Cl)n3)n2)CC1 [Compound 147] |
| < 0.05 | < 0.05 |  | < 0.05 | < 0.05 | FC1(F)CCC(Nc2nc(NC3Cc4ccc(Cl)cc4C3)nc(-c3cccc(C(F)(F)F)n3)n2)C1 (stereo not drawn) [Compound 182] |
| < 0.05 | < 0.05 |  | < 0.05 | < 0.05 | FC1(F)CC(Nc2nc(NC3CC(F)(F)C3)nc(-n3ccc(C(F)(F)F)n3)n2)C1 [Compound 126] |

| IC50 (IDH2 R140Q) [µM] | IC50 [1] [µM] | IC50 [2, 4] [µM] | IC50 [3] [µM] | IC50 [2, 5] [µM] | SMILES |
| --- | --- | --- | --- | --- | --- |
|  |  |  | 0.1 to 1 | 0.1 to 1 | CS(=O)(=O)N1CCC(Nc2nc(NC3CCC(F)(F)CC3)nc(-c3cccc(C(F)(F)F)n3)n2)CC1 [Compound 266] |
| < 0.05 | < 0.05 |  | < 0.05 | < 0.05 | FC1(F)CCC(Nc2nc(Nc3ccnc(C(F)(F)F)c3)nc(-c3cccc(Cl)n3)n2)C1 (stereo not drawn) [Compound 115] |
| < 0.05 | < 0.05 |  | < 0.05 | < 0.05 | N#CC1(c2cc(Nc3nc(NC4CCC(F)(F)C4)nc(-c4cccc(C(F)(F)F)n4)n3)ccn2)CC1 (stereo not drawn) [Compound 151] |
|  |  |  | ≥ 1 | 0.1 to 1 | FC1(F)CCC(Nc2nc(NC3CCN(Cc4ccccc4)C3)nc(-c3cccc(C(F)(F)F)n3)n2)C1 (stereo not drawn) [Compound 280] |
| < 0.05 | < 0.05 |  | < 0.05 | < 0.05 | N#CC1(c2cc(Nc3nc(NC4CCC(F)(F)CC4)nc(-c4cccc(C(F)(F)F)n4)n3)ccn2)CC1 [Compound 189] |
| < 0.05 | < 0.05 |  | < 0.05 | < 0.05 | FC1(F)CC(Nc2nc(NC3CC(F)(F)C3)nc(-c3csc(C(F)(F)F)n3)n2)C1 [Compound 170] |
| < 0.05 | < 0.05 |  | 0.05 to 0.1 | < 0.05 | FC1(F)CCC(Nc2nc(NC3CCC(F)(F)CC3)nc(-c3csc(C(F)(F)F)n3)n2)CC1 [Compound 223] |
| < 0.05 | < 0.05 |  | < 0.05 | < 0.05 | N#Cc1cc(Nc2nc(NC3CCC(F)(F)C3)nc(-c3cccc(C(F)(F)F)n3)n2)ccn1 (stereo not drawn) [Compound 181] |
| < 0.05 | < 0.05 |  | < 0.05 | < 0.05 | FC1(F)CCC(Nc2nc(NC3CCC(F)(F)CC3)nc(-n3ccc(C(F)(F)F)n3)n2)CC1 [Compound 176] |
| < 0.05 | < 0.05 |  | < 0.05 | < 0.05 | FC(F)c1cccc(-c2nc(NC3CCC(F)(F)CC3)nc(NC3CCC(F)(F)CC3)n2)n1 [Compound 224] |
| < 0.05 | < 0.05 |  | 0.05 to 0.1 | < 0.05 | CC(C)(CC#N)Nc1nc(Nc2ccnc(C(C)(F)F)c2)nc(-c2cccc(C(F)(F)F)n2)n1 [Compound 231] |
| < 0.05 | < 0.05 |  |  | < 0.05 | N#CC1(c2cc(Nc3nc(NC4CC(F)(F)C4)nc(-c4cccc(C(F)(F)F)n4)n3)ccn2)CC1 [Compound 168] |
| < 0.05 | < 0.05 |  | < 0.05 | < 0.05 | CC(Nc1nc(N[C@H](C)C2CC2)nc(-c2cccc(C(F)(F)F)n2)n1)C(F)(F)F (stereo partly drawn) [Compound 203] |
| 0.1 to 1 | 0.1 to 1 |  | 0.05 to 0.1 | < 0.05 | FC1(F)CCC(Nc2nc(NC3CCN(c4ncccn4)C3)nc(-c3cccc(C(F)(F)F)n3)n2)C1 (stereo not drawn) [Compound 227] |
| < 0.05 | < 0.05 |  | < 0.05 | < 0.05 | CCC(Nc1nc(NC(CC)C2CC2)nc(-c2cccc(Cl)n2)n1)C1CC1 (stereo not drawn) [Compound 110] |
| < 0.05 | < 0.05 |  | < 0.05 | < 0.05 | CC(F)(F)c1cccc(-c2nc(NC3CCC(F)(F)C3)nc(NC3CCC(F)(F)C3)n2)n1 (stereo not drawn) [Compound 105] |
| < 0.05 | < 0.05 |  | < 0.05 | < 0.05 | FC1(F)CCC(Nc2nc(NC3CCC(F)(F)C3)nc(-c3cccc(Cl)n3)n2)C1 (stereo not drawn) [Compound 113] |
|  |  |  | 0.1 to 1 | 0.1 to 1 | O=C(c1ccccc1)N1CCC(Nc2nc(NC3CCC(F)(F)C3)nc(-c3cccc(C(F)(F)F)n3)n2)C1 (stereo not drawn) [Compound 263] |
| < 0.05 | < 0.05 | < 0.05 |  |  | FC1(F)CCC(Nc2nc(Nc3ccnc(C(F)(F)F)c3)nc(-c3cncc(C(F)(F)F)n3)n2)CC1 [Compound 389] |
| < 0.05 | < 0.05 | < 0.05 |  |  | N#CC1(c2cc(Nc3nc(NC4CC(F)(F)C4)nc(-c4cncc(C(F)(F)F)n4)n3)ccn2)CC1 [Compound 401] |

| SMILES | IC50 (IDH2 R140Q) [µM] | IC50 [1] [µM] | IC50 [2, 4] [µM] | IC50 [3] [µM] | IC50 [2, 5] [µM] |
| --- | --- | --- | --- | --- | --- |
| FC1(F)CCC(Nc2nc(NC3Cc4ccccc4C3)nc(-c3cccc(C(F)(F)F)n3)n2)C1 (stereo not drawn) [Compound 152] | < 0.05 | < 0.05 |  | < 0.05 | < 0.05 |
| C[C@@H](Nc1nc(N[C@H](C)C2CC2)nc(-c2nccc(C(F)(F)F)n2)n1)C1CC1 [Compound 268] | 0.05 to 0.1 | 0.05 to 0.1 |  | < 0.05 | 0.1 to 1 |
| CC(=O)N1CCC(Nc2nc(NC3CCC(F)(F)CC3)nc(-c3cccc(C(F)(F)F)n3)n2)CC1 [Compound 273] |  |  |  | 0.1 to 1 | 0.1 to 1 |
